Structures can show the parent of a compound that is named as a salt.

For the data set the following is noted: for Δ % weight 24 h / Δ % weight 48 h / Δ % weight 6 days: 64±5% relative humidity, 22±2° C.; for KF (t = 0): Karl Fischer value at the beginning of the study; for Hygroscopicity class according to the scale: PharmaEuropa scale of % incorporation of water. The procedure: The objective was to measure the hygroscopicity of the salts of the present invention, and comparing it with the one of the known salt of each counter part of the salts. The increasing of the weight will be measured in order to evaluate the incorporation of water in the samples, together with the Karl Fischer factor.
The scale is the following:
Preparation of the Humidity chamber: A supersaturated solution of sodium nitrite (45 g/50 ml) is prepared and introduced in a humidification chamber (samplaterecord). The chamber is maintained at a temperature of 22±2° C. during 24 hours before use, and humidity is controlled each day.
The variation of the weight is controlled and the following percentage is calculated: Δ%weight=(Pn−P1)/P1×100 wherein: P1 is the initial weight, Pn is the weight measured for the sample.

Consider `CNCC[C@H](Oc1cccc2ccccc12)c1cccs1.CNCC[C@H](Oc1cccc2ccccc12)c1cccs1.COc1ccc2cc([C@H](C)C(=O)O)ccc2c1.COc1ccc2cc([C@H](C)C(=O)O)ccc2c1.COc1ccc2cc([C@H](C)C(=O)O)ccc2c1`, for which the “Δ % weight 24 h” value came to 0%, the “Δ % weight 48 h” value is recorded as 0.09%, the “Δ % weight 6 days” value is 0.13% and the “KF (t = 0)” value is recorded as 0.36. The “Hygroscopicity class according to the scale” value (from here on “Hygroscopicity class according”) is recorded as “not hygroscopic”.

Consider `CNCC[C@H](Oc1cccc2ccccc12)c1cccs1` [Duloxetine HCl], for which the “Δ % weight 24 h” value is 0.19%, the “Δ % weight 48 h” value was found to be 0.26%, the “Δ % weight 6 days” value turned out to be 0.18% and the “KF (t = 0)” value amounted to 0.33. For the same compound, the “Hygroscopicity class according” value is given as “not hygroscopic”.

Regarding `COc1ccc2cc([C@H](C)C(=O)[O-])ccc2c1.[Na+]` [sodium naproxen], the “Δ % weight 24 h” value was 14.39%, the “Δ % weight 48 h” value amounted to 14.39%, the “Δ % weight 6 days” value worked out at 14.3% and the “KF (t = 0)” value is recorded as 1.04. Further, the “Hygroscopicity class according” value is given as “hygroscopic”.
